Type in all cases: biochemical
One test deals with CDK4/cyclin D1 (Homo sapiens (Human), UniProt P11802). Briefly: CDK4/Cyclin D1 enzymatic activity assay (Lance TR-FRET). Conditions: Table 2; 3 μM ATP; read-out: CDK4. As for the experimental part:
A 384-well microtiter Lance TR-FRET (time-resolved-fluorescence energy transfer) endpoint assay was used for CDK4/cyclin D1 kinase activity measurements. The same assay was used for IC50 determination of small molecule inhibitors. In general, the kinase reactions were carried out in 30 μL volumes in the reaction solution containing the following: 2 uL compound (in […]), 18 uL CDK4/cyclin D1 in Assay Buffer (50 mM HEPES, pH 7.5, 5 mM MgCl2, 2 mM MnCl2, 1 mM DTT, 0.05% BSA, 0.02% Tween-20), 10 uL of the mixture of pRb152 and ATP. The final reaction mixture contains compound (inhibitor) with the concentration varying from 0.005-10 μM, 2% DMSO, 0.3 nM CDK4/cyclin D1, 175 nM pRb152, and 3 μM ATP (Amersham Pharmacia, Cat. No. 27-2056-01). All reactions were run at room temperature in 384-well white flat-bottom OptiPlates (Perkin Elmer, Cat. No. 6007290) for 60 min then were quenched by the addition of 10 μL of 120 mM EDTA. The signals were captured by the addition of 40 μL of the Detection Solution containing the following: Detection Buffer (50 mM HEPES, pH 7.5, 30 mM EDTA, 0.1% Triton x-100, 0.05% BSA), 70 ng/mL anti-phospho-pRb(S780) (Cell Signaling Technology, Cat. No. 9307S), 1 nM Lance Eu-W1024-Rabbit anti-IgG (Perkin Elmer, Cat. No. AD0082), and 20 nM SureLight™ Allophycocyanin-Streptavidin (Perkin Elmer, Cat. No. CR130-100). The resulted solutions were incubated at room temperature for 2 hours before read on the Evision Multilabel Reader (Perkin Elmer, Envision 2102-0010).
CDk4/cyclin D1 recombinant protein used in the enzymatic activity assay was prepared by coexpressing pDEST10-CDK4 (N-terminal His6) and pFastBacDual-GST-hCyclinDl viruses in Sf21 cells.

The target of another test is CDK2/cyclin A (Homo sapiens (Human), UniProt P24941). The test is described as follows: CDK2/Cyclin A enzymatic activity assay (IMAP-FP). Conditions: Table 2; read-out: CDK2.
The next test has as its target CDK1/cyclin B (Homo sapiens (Human), UniProt P06493). The test is described as follows: CDK1/Cyclin B enzymatic activity assay (IMAP-FP). Conditions: Table 2; 20 μM ATP; read-out: CDK1. The source says: A 384-well microtiter IMAP-FPT™ (Molecular Devices Trade Mark Technology) endpoint assay was used for CDK1/cyclin B kinase activity measurements. The same assay was used for IC50 determination of small molecule inhibitors.

pIC50: −log10 of the molar value. A value given as a limit tells only on which side of the number the result lay.

Sequence of CDK1/cyclin B (P06493 whole entry, species assumed): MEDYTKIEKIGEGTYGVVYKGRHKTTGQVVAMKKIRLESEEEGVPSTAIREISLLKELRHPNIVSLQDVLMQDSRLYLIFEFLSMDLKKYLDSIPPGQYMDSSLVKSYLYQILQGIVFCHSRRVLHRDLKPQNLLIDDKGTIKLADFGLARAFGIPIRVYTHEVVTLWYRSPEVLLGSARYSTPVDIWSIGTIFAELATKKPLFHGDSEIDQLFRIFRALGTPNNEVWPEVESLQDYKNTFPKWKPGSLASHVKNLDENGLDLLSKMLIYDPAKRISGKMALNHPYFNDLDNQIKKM
Sequence of CDK1/cyclin B (P14635 whole entry partner, species assumed): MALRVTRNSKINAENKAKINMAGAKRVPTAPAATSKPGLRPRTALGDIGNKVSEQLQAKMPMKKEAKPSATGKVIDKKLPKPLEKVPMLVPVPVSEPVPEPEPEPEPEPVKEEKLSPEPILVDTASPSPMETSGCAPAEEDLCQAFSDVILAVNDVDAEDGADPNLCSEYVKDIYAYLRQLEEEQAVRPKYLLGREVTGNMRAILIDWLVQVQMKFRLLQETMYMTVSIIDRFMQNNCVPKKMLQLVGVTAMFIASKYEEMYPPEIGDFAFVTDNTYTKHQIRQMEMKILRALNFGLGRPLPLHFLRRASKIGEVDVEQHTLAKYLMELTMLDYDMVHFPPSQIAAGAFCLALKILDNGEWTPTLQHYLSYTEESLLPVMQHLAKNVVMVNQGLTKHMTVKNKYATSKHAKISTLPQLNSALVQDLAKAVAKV
Sequence of CDK4/cyclin D1 (P11802 whole entry): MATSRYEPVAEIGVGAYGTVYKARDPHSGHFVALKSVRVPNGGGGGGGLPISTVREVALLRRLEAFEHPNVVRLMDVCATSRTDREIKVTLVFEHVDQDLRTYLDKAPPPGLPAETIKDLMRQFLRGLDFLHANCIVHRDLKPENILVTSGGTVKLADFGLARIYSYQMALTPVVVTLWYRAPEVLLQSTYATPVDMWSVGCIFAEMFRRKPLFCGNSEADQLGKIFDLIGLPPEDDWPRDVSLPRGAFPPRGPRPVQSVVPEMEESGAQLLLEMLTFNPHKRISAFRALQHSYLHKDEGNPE
Sequence of CDK4/cyclin D1 (P24385 whole entry partner): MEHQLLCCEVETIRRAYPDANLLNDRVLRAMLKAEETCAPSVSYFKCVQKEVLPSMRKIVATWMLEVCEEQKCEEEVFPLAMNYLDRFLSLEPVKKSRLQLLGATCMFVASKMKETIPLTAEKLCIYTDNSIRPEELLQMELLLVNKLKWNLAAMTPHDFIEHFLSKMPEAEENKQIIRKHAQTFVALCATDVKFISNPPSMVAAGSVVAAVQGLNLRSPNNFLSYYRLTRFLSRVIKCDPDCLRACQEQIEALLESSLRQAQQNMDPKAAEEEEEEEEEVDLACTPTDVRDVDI

For `CN(C)C(=O)c1cc2cnc(Nc3cnc(N4CCN(CCO)CC4)cn3)nc2n1C1CCCC1` [Example 15, 7-Cyclopentyl-2-[4-(2-hydroxy-ethyl)-3,4,5,6-tetrahydro-2H-[1,2]′bipyrazinyl-5′-ylamino]-7H-pyrrolo[2,3-d]pyrimidine-6-carboxylic acid dimethylamide], the pIC50 on CDK4/cyclin D1 was 6.00 to 7.00; at CDK2/cyclin A it was less than 4.82; at CDK1/cyclin B it was less than 4.82.
As for `CC1CN(Cc2ccc(Nc3ncc4cc(C(=O)N(C)C)n(C5CCCC5)c4n3)nc2)CCN1` (centres unmarked) [Example 54, 7-Cyclopentyl-2-[5-(3-methyl-piperazin-1-ylmethyl)-pyridin-2-ylamino]-7H-pyrrolo[2,3-d]pyrimidine-6-carboxylic acid dimethylamide], the pIC50 on CDK4/cyclin D1 is 7.00 to 8.00; at CDK2/cyclin A, less than 4.82; at CDK1/cyclin B, less than 4.82.
As to `CN(C)C(=O)c1cc2cnc(Nc3ccc(N4CCN(C(=O)OC(C)(C)C)CC4)nn3)nc2n1C1CCCC1` [Example 45, 4-[6-(7-Cyclopentyl-6-dimethylcarbamoyl-7H-pyrrolo[2,3-d]pyrimidin-2-ylamino)-pyridazin-3-yl]-piperazine-1-carboxylic acid tert-butyl ester], the pIC50 on CDK4/cyclin D1 is 6.00 to 7.00; at CDK2/cyclin A, 4.70; at CDK1/cyclin B, less than 4.82.
The like results for `CC(=O)N1CCN(c2ccc(Nc3ncc4cc(C(=O)N(C)C)n(C5CCCC5)c4n3)nc2)CC1` [Example 7, 2-[5-(4-Acetylpiperazin-1-yl)-pyridin-2-ylamino]-7-cyclopentyl-7H-pyrrolo[2,3-d]pyrimidine-6-carboxylic acid dimethylamide] were, in that order, 7.00 to 8.00, less than 4.82 and less than 4.82.
For `CC(C)OCCN1CCN(c2ccc(Nc3ncc4cc(C(=O)N(C)C)n(C5CCCC5)c4n3)nc2)CC1` [Example 95, 7-Cyclopentyl-2-{5-[4-(2-isopropoxy-ethyl)-piperazin-1-yl]-pyridin-2-ylamino}-7H-pyrrolo[2,3-d]pyrimidine-6-carboxylic acid dimethylamide], the pIC50 at CDK4/cyclin D1 was 7.00 to 8.00; on CDK2/cyclin A, less than 4.82; on CDK1/cyclin B, less than 4.82.
In the case of `CC(CO)N1CCN(c2ccc(Nc3ncc4cc(C(=O)N(C)C)n(C5CCCC5)c4n3)nc2)CC1` (centres unmarked) [Example 36, 7-Cyclopentyl-2-{5-[4-(2-hydroxy-1-methyl-ethyl)-piperazin-1-yl]-pyridin-2-ylamino}-7H-pyrrolo[2,3-d]pyrimidine-6-carboxylic acid dimethylamide], the pIC50 on CDK4/cyclin D1 is 7.00 to 8.00; at CDK2/cyclin A it was less than 4.82; on CDK1/cyclin B, less than 4.82.
Take `CN(C)C(=O)c1cc2cnc(Nc3ccc(N4CCC(CCO)CC4)cn3)nc2n1C1CCCC1` [Example 35, 7-Cyclopentyl-2-[4-(2-hydroxy-ethyl)-3,4,5,6-tetrahydro-2H-[1,3′]bipyridinyl-6′-ylamino]-7H-pyrrolo[2,3-d]pyrimidine-6-carboxylic acid dimethylamide]: the pIC50 was 7.00 to 8.00 at CDK4/cyclin D1, 5.54 on CDK2/cyclin A and 5.33 at CDK1/cyclin B.
For `CC(C)N1CCN(c2ccc(Nc3ncc4cc(C(=O)N(C)C)n(C5CCCC5)c4n3)nn2)CC1` [Example 70, 7-Cyclopentyl-2-[6-(4-isopropyl-piperazin-1-yl)-pyridazin-3-ylamino]-7H-pyrrolo[2,3-d]pyrimidine-6-carboxylic acid dimethylamide], in that order: 7.00 to 8.00, less than 4.82 and less than 4.82.
For `CC(C)CN1CCN(c2ccc(Nc3ncc4cc(C(=O)N(C)C)n(C5CCCC5)c4n3)nc2)CC1` [Example 92, 7-Cyclopentyl-2-[5-(4-isobutyl-piperazin-1-yl)-pyridin-2-ylamino]-7H-pyrrolo[2,3-d]pyrimidine-6-carboxylic acid dimethylamide], in that order: 8.00 to 9.00, less than 4.82 and less than 4.82.
Take `CN(C)C(=O)c1cc2cnc(Nc3ccc(C(=O)N(C)CCN)cn3)nc2n1C1CCCC1` [Example 41, 2-{5-[(2-Amino-ethyl)-methyl-carbamoyl]-pyridin-2-ylamino}-7-cyclopentyl-7H-pyrrolo[2,3-d]pyrimidine-6-carboxylic acid dimethylamide]: the pIC50 on CDK4/cyclin D1 is 8.00 to 9.00; at CDK2/cyclin A it was 5.33; at CDK1/cyclin B, 4.83.
The like results for `CN(C)C(=O)c1cc2cnc(Nc3ccc(N4CCN(C(=O)N5CCOCC5)CC4)cn3)nc2n1C1CCCC1` [Example 38, 7-Cyclopentyl-2-{5-[4-(morpholine-4-carbonyl)-piperazin-1-yl]-pyridin-2-ylamino}-7H-pyrrolo[2,3-d]pyrimidine-6-carboxylic acid dimethylamide] were, in that order, 7.00 to 8.00, less than 4.82 and less than 4.82.
For `CN(C)C(=O)c1cc2cnc(Nc3ccc(CN4CCN(C(=O)CN)CC4)cn3)nc2n1C1CCCC1` [Example 65, 2-{5-[4-(2-Amino-acetyl)-piperazin-1-ylmethyl]-pyridin-2-ylamino}-7-cyclopentyl-7H-pyrrolo[2,3-d]pyrimidine-6-carboxylic acid dimethylamide], in that order: 7.00 to 8.00, less than 4.82 and less than 4.82.
The like results for `CN(C)C(=O)c1cc2cnc(Nc3ccc(N4CCOCC4)cn3)nc2n1C1CCCC1` [Example 110, 7-Cyclopentyl-2-(5-morpholin-4-yl-pyridin-2-ylamino)-7H-pyrrolo[2,3-d]pyrimidine-6-carboxylic acid dimethylamide] were, in that order, 6.00 to 7.00, less than 4.82 and less than 4.82.
For `C[C@H]1CN(c2ccc(Nc3ncc4cc(C(=O)N(C)C)n(C5CCCC5)c4n3)nc2)CCN1CCO` [Example 82, 7-Cyclopentyl-2-{5-[(S)-4-(2-hydroxy-ethyl)-3-methyl-piperazin-1-yl]-pyridin-2-ylamino}-7H-pyrrolo[2,3-d]pyrimidine-6-carboxylic acid dimethylamide], the results for the pIC50 on CDK4/cyclin D1, on CDK2/cyclin A and at CDK1/cyclin B were 7.00 to 8.00, less than 4.82 and less than 4.82, respectively.
On to `C[C@@H]1CN(c2ccc(Nc3ncc4cc(C(=O)N(C)C)n(C5CCCC5)c4n3)nc2)CCN1` [Example 16, 7-Cyclopentyl-2-[5-((R)-3-methyl-piperazin-1-yl)-pyridin-2-ylamino]-7H-pyrrolo[2,3-d]pyrimidine-6-carboxylic acid dimethylamide], for which the figures for the pIC50 at CDK4/cyclin D1, on CDK2/cyclin A and on CDK1/cyclin B were 8.00 to 9.00, less than 4.82 and less than 4.82, respectively.
As for `CN(C)C(=O)c1cc2cnc(Nc3ccc(C4CCN(CCO)CC4)cn3)nc2n1C1CCCC1` [Example 100, 7-Cyclopentyl-2-[1′-(2-hydroxy-ethyl)-1′,2′,3′,4′,5′,6′-hexahydro-[3,4]bipyridinyl-6-ylamino]-7H-pyrrolo[2,3-d]pyrimidine-6-carboxylic acid dimethylamide], the pIC50 was 7.00 to 8.00 at CDK4/cyclin D1, less than 4.82 at CDK2/cyclin A and less than 4.82 on CDK1/cyclin B.
In the case of `CN(C)C(=O)c1cc2cnc(Nc3ccc(N4CC(O)C4)cn3)nc2n1C1CCCC1` [Example 32, 7-Cyclopentyl-2-[5-(3-hydroxy-azetidin-1-yl)-pyridin-2-ylamino]-7H-pyrrolo[2,3-d]pyrimidine-6-carboxylic acid dimethylamide], the figures for the pIC50 at CDK4/cyclin D1, on CDK2/cyclin A and at CDK1/cyclin B were 7.00 to 8.00, less than 4.82 and less than 4.82, respectively.
Take `C[C@H](O)CN1CCN(c2ccc(Nc3ncc4cc(C(=O)N(C)C)n(C5CCCC5)c4n3)nc2)CC1` [Example 56, 7-Cyclopentyl-2-{5-[4-((S)-2-hydroxy-propyl)-piperazin-1-yl]-pyridin-2-ylamino}-7H-pyrrolo[2,3-d]pyrimidine-6-carboxylic acid dimethylamide]: the pIC50 on CDK4/cyclin D1 was 7.00 to 8.00; at CDK2/cyclin A, less than 4.82; at CDK1/cyclin B, less than 4.82.
For the compound `CN(C)C(=O)c1cc2cnc(Nc3ccc(N4CCNCC4=O)cn3)nc2n1C1CCCC1` [Example 109, 7-cyclopentyl-2-[5-(2-oxopiperazin-1-yl)pyridin-2-ylamino]-7H-pyrrolo[2,3-d]pyrimidine-6-carboxylic acid dimethylamide], at CDK4/cyclin D1, the pIC50 is 6.00 to 7.00.
For the compound `CN(C)C(=O)c1cc2cnc(Nc3ccc(CN4CC5CCC(C4)N5)cn3)nc2n1C1CCCC1` [Example 73, 7-Cyclopentyl-2-[5-(3,8-diaza-bicyclo[3.2.1]oct-3-ylmethyl)-pyridin-2-ylamino]-7H-pyrrolo[2,3-d]pyrimidine-6-carboxylic acid dimethylamide], the pIC50 on CDK4/cyclin D1 is 7.00 to 8.00.

Source of the values: US8962630B2, “Pyrrolopyrimidine compounds and their uses” (Novartis AG, priority 2008, dated 2015).
